Several values for one entry are separate records, joined by “and”; a condition that tells them apart may be missing. Equal entries are not always repeated. Toxic doses and inconclusive results are not listed.
System: CD2F1 mice, L1210 leukemia ip, survival T/C
Assay: NCI In Vivo Anticancer Drug Screen. Data for tumor model L1210 Leukemia (intraperitoneal) in CD2F1 (CDF1) mice
Conditions: higher = longer survival
Method in brief: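 Ratio T/C, where T is the treated-group value and C the vehicle-dosed control value, from mice implanted with a transplantable tumor.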

[1] = endpoint: median survival time, dose: 12.5 mg/kg/injection, schedule: Q04DX003 (ip), vehicle: saline
[2] = endpoint: median survival time, dose: 25.0 mg/kg/injection, schedule: Q04DX003 (ip), vehicle: saline
[3] = endpoint: median survival time, dose: 50.0 mg/kg/injection, schedule: Q04DX003 (ip), vehicle: saline
[4] = endpoint: mean survival time, dose: 100.0 mg/kg/injection, schedule: Q04DX003 (ip), vehicle: saline with Tween-80
[5] = endpoint: mean survival time, dose: 100.0 mg/kg/injection, schedule: Q01DX009 (ip), vehicle: saline with Tween-80
[6] = endpoint: mean survival time, dose: 200.0 mg/kg/injection, schedule: Q01DX009 (ip), vehicle: saline with Tween-80
[7] = endpoint: mean survival time, dose: 50.0 mg/kg/injection, schedule: Q01DX009 (ip), vehicle: saline with Tween-80
[8] = endpoint: mean survival time, dose: 200.0 mg/kg/injection, schedule: Q04DX003 (ip), vehicle: saline with Tween-80
[9] = endpoint: mean survival time, dose: 400.0 mg/kg/injection, schedule: Q04DX003 (ip), vehicle: saline with Tween-80
[10] = endpoint: mean survival time, dose: 100.0 mg/kg/injection, schedule: Q01DX001 (ip), vehicle: saline with Tween-80
[11] = endpoint: mean survival time, dose: 200.0 mg/kg/injection, schedule: Q01DX001 (ip), vehicle: saline with Tween-80
[12] = endpoint: mean survival time, dose: 100.0 mg/kg/injection, schedule: Q01DX001 (ip), vehicle: saline
[13] = endpoint: mean survival time, dose: 200.0 mg/kg/injection, schedule: Q01DX001 (ip), vehicle: saline
[14] = endpoint: mean survival time, dose: 400.0 mg/kg/injection, schedule: Q01DX001 (ip), vehicle: saline
[15] = endpoint: mean survival time, dose: 100.0 mg/kg/injection, schedule: Q04DX002 (ip), vehicle: saline with Tween-80
[16] = endpoint: mean survival time, dose: 200.0 mg/kg/injection, schedule: Q04DX002 (ip), vehicle: saline with Tween-80

## CCN1/C(=C/C(C)=C/c2sc3ccc4ccccc4c3[n+]2CC)Sc2ccc3ccccc3c21
endpoint: mean survival time, dose: 0.02 mg/kg/injection, schedule: Q01DX009 (ip), vehicle: Klucel (hydroxypropylcellulose) (HPC)
  T/C: 101 % of control
endpoint: mean survival time, dose: 0.03 mg/kg/injection, schedule: Q01DX009 (ip), vehicle: Klucel (hydroxypropylcellulose) (HPC)
  T/C: 100 % of control
endpoint: mean survival time, dose: 0.05 mg/kg/injection, schedule: Q01DX009 (ip), vehicle: Klucel (hydroxypropylcellulose) (HPC)
  T/C: 113 % of control and 97 % of control
endpoint: mean survival time, dose: 0.1 mg/kg/injection, schedule: Q01DX009 (ip), vehicle: Klucel (hydroxypropylcellulose) (HPC)
  T/C: 100 % of control and 110 % of control
endpoint: mean survival time, dose: 0.2 mg/kg/injection, schedule: Q01DX009 (ip), vehicle: Klucel (hydroxypropylcellulose) (HPC)
  T/C: 103 % of control and 104 % of control
endpoint: mean survival time, dose: 0.4 mg/kg/injection, schedule: Q01DX009 (ip), vehicle: Klucel (hydroxypropylcellulose) (HPC)
  T/C: 105 % of control and 107 % of control
endpoint: mean survival time, dose: 0.8 mg/kg/injection, schedule: Q01DX009 (ip), vehicle: Klucel (hydroxypropylcellulose) (HPC)
  T/C: 119 % of control and 104 % of control

## CC(=O)OCC(C(=O)OC1CC2C3OC3C(C1)N2C)c1ccccc1 (centres undefined)
[1]
  T/C: 100 % of control
[2]
  T/C: 100 % of control
[3]
  T/C: 88 % of control
endpoint: median survival time, dose: 100.0 mg/kg/injection, schedule: Q04DX003 (ip), vehicle: saline
  T/C: 88 % of control

## Oc1cccc2c1NCCC2
endpoint: mean survival time, dose: 25.0 mg/kg/injection, schedule: Q04DX003 (ip), vehicle: saline with Tween-80
  T/C: 104 % of control
endpoint: mean survival time, dose: 50.0 mg/kg/injection, schedule: Q04DX003 (ip), vehicle: saline with Tween-80
  T/C: 98 % of control
[4]
  T/C: 91 % of control and 102 % of control

## COc1ccc(CCN(C=O)c2ccc(OC)c(OC)c2)cc1OC
endpoint: mean survival time, dose: 12.5 mg/kg/injection, schedule: Q01DX009 (ip), vehicle: water
  T/C: 96 % of control
endpoint: mean survival time, dose: 25.0 mg/kg/injection, schedule: Q01DX009 (ip), vehicle: water
  T/C: 98 % of control
endpoint: mean survival time, dose: 50.0 mg/kg/injection, schedule: Q01DX009 (ip), vehicle: water
  T/C: 98 % of control
endpoint: mean survival time, dose: 100.0 mg/kg/injection, schedule: Q01DX009 (ip), vehicle: water
  T/C: 100 % of control
endpoint: mean survival time, dose: 200.0 mg/kg/injection, schedule: Q01DX009 (ip), vehicle: water
  T/C: 100 % of control

## CC1(C)N=C(N)N=C(N)N1c1ccc(C(C#N)CCCc2ccccc2)cc1 (centres undefined)
endpoint: mean survival time, dose: 25.0 mg/kg/injection, schedule: Q01DX009 (ip), vehicle: Klucel (hydroxypropylcellulose) (HPC)
  T/C: 97 % of control
endpoint: mean survival time, dose: 50.0 mg/kg/injection, schedule: Q01DX009 (ip), vehicle: Klucel (hydroxypropylcellulose) (HPC)
  T/C: 101 % of control
endpoint: mean survival time, dose: 100.0 mg/kg/injection, schedule: Q01DX009 (ip), vehicle: Klucel (hydroxypropylcellulose) (HPC)
  T/C: 91 % of control

## O=C(CCCCC(=O)N/N=C/c1cccc([N+](=O)[O-])c1)N/N=C/c1cccc([N+](=O)[O-])c1
[5]
  T/C: 87 % of control
[6]
  T/C: 87 % of control
endpoint: mean survival time, dose: 400.0 mg/kg/injection, schedule: Q01DX009 (ip), vehicle: saline with Tween-80
  T/C: 90 % of control

## C/C=C\c1ccc(OCCOC(=O)Nc2ccc(Cl)cc2C)c(OC)c1
[7]
  T/C: 87 % of control
[5]
  T/C: 92 % of control
[6]
  T/C: 100 % of control

## CCCCCCCCP(=O)(N1CC1C)N1CC1C (centres undefined)
endpoint: mean survival time, dose: 6.25 mg/kg/injection, schedule: Q01DX009 (ip), vehicle: saline
  T/C: 98 % of control
endpoint: mean survival time, dose: 12.5 mg/kg/injection, schedule: Q01DX009 (ip), vehicle: saline
  T/C: 94 % of control
endpoint: mean survival time, dose: 25.0 mg/kg/injection, schedule: Q01DX009 (ip), vehicle: saline
  T/C: 96 % of control
endpoint: mean survival time, dose: 50.0 mg/kg/injection, schedule: Q01DX009 (ip), vehicle: saline
  T/C: 102 % of control

## CC(C)(C)C(CCC(=O)O)CC(=O)O (centres undefined)
[4]
  T/C: 97 % of control
[8]
  T/C: 96 % of control
[9]
  T/C: 100 % of control

## CC1=NN(c2cccc(S(=O)(=O)O)c2)C(=O)C1
endpoint: mean survival time, dose: 100.0 mg/kg/injection, schedule: Q01DX009 (ip), vehicle: saline sonified
  T/C: 88 % of control

## CS(=O)CN(c1c(Cl)c(Cl)c(NS(=O)(=O)c2ccccc2)c(Cl)c1Cl)S(=O)(=O)c1ccccc1 (centres undefined)
[10]
  T/C: 96 % of control
[11]
  T/C: 92 % of control
endpoint: mean survival time, dose: 400.0 mg/kg/injection, schedule: Q01DX001 (ip), vehicle: saline with Tween-80
  T/C: 92 % of control

## C=CCNC(C)=O
[12]
  T/C: 103 % of control
[13]
  T/C: 97 % of control
[14]
  T/C: 103 % of control

## CCNC(C)(C)C(SS)c1ccc(C(F)(F)F)cc1 (centres undefined)
[4]
  T/C: 88 % of control
[8]
  T/C: 90 % of control
[9]
  T/C: 93 % of control

## Cc1ccc(/C(C#N)=C/c2ccc3c(c2)OCO3)cc1
[15]
  T/C: 94 % of control
[16]
  T/C: 97 % of control
endpoint: mean survival time, dose: 400.0 mg/kg/injection, schedule: Q04DX002 (ip), vehicle: saline with Tween-80
  T/C: 91 % of control

## CC(=O)O.CC(=O)O.O.[Fe]
[12]
  T/C: 98 % of control
[13]
  T/C: 96 % of control
[14]
  T/C: 100 % of control

## Cc1ccc(S(=O)(=O)NC(=O)OCCc2c3ccccc3nc3ccccc23)cc1
endpoint: mean survival time, dose: 100.0 mg/kg/injection, schedule: Q04DX002 (ip), vehicle: other
  T/C: 97 % of control
[15]
  T/C: 97 % of control
endpoint: mean survival time, dose: 200.0 mg/kg/injection, schedule: Q04DX002 (ip), vehicle: other
  T/C: 97 % of control
[16]
  T/C: 109 % of control

## CN(C)c1nnc(N(C)C)s1
[4]
  T/C: 100 % of control
[8]
  T/C: 98 % of control
[9]
  T/C: 98 % of control

## O=C(/C=C/C(=O)c1ccccc1)c1ccccc1
endpoint: mean survival time, dose: 6.25 mg/kg/injection, schedule: Q01DX001 (ip), vehicle: saline with Tween-80
  T/C: 92 % of control
endpoint: mean survival time, dose: 12.5 mg/kg/injection, schedule: Q01DX001 (ip), vehicle: saline with Tween-80
  T/C: 107 % of control
endpoint: mean survival time, dose: 25.0 mg/kg/injection, schedule: Q01DX001 (ip), vehicle: saline with Tween-80
  T/C: 96 % of control
endpoint: mean survival time, dose: 50.0 mg/kg/injection, schedule: Q01DX001 (ip), vehicle: saline with Tween-80
  T/C: 89 % of control
[10]
  T/C: 94 % of control

## CC(C)N=C(N)c1ccc(NC(=O)c2ccc(C(=O)Nc3ccc(C(N)=NC(C)C)cc3)cc2)cc1
endpoint: mean survival time, dose: 6.25 mg/kg/injection, schedule: Q01DX Z (ip), vehicle: water
  T/C: 93 % of control

## CC(=O)Nc1ccccc1C(=O)C(=O)Nc1ccccc1C(=O)NN
[7]
  T/C: 95 % of control
[5]
  T/C: 91 % of control
[6]
  T/C: 87 % of control

## Cc1cn(C2CC(O)C(CO)O2)c(=O)nc1NCc1cccs1 (centres undefined)
endpoint: median survival time, dose: 12.5 mg/kg/injection, schedule: Q01DX005 (ip), vehicle: water
  T/C: 103 % of control
endpoint: median survival time, dose: 25.0 mg/kg/injection, schedule: Q01DX005 (ip), vehicle: water
  T/C: 105 % of control
endpoint: median survival time, dose: 50.0 mg/kg/injection, schedule: Q01DX005 (ip), vehicle: water
  T/C: 106 % of control
endpoint: median survival time, dose: 100.0 mg/kg/injection, schedule: Q01DX005 (ip), vehicle: water
  T/C: 101 % of control
endpoint: median survival time, dose: 200.0 mg/kg/injection, schedule: Q01DX005 (ip), vehicle: water
  T/C: 103 % of control

## O=C(Cl)N(c1ccccc1)c1ccccc1
[10]
  T/C: 91 % of control
[11]
  T/C: 100 % of control

## Nc1nc(N)c2nc(CN(Cc3ccccc3)c3ccc(C(=O)NC(CCC(=O)O)C(=O)O)cc3)cnc2n1 (centres undefined)
endpoint: mean survival time, dose: 20.0 mg/kg/injection, schedule: Q01DX009 (ip), vehicle: sodium bicarbonate
  T/C: 109 % of control
endpoint: mean survival time, dose: 40.0 mg/kg/injection, schedule: Q01DX009 (ip), vehicle: sodium bicarbonate
  T/C: 114 % of control
endpoint: mean survival time, dose: 80.0 mg/kg/injection, schedule: Q01DX009 (ip), vehicle: sodium bicarbonate
  T/C: 114 % of control
endpoint: mean survival time, dose: 100.0 mg/kg/injection, schedule: Q01DX001 (ip), vehicle: sodium bicarbonate
  T/C: 94 % of control
endpoint: mean survival time, dose: 200.0 mg/kg/injection, schedule: Q01DX001 (ip), vehicle: sodium bicarbonate
  T/C: 91 % of control
endpoint: mean survival time, dose: 400.0 mg/kg/injection, schedule: Q01DX001 (ip), vehicle: sodium bicarbonate
  T/C: 91 % of control

## C/C(=C/C(=O)O)C(=O)O.[NH-]C1CCCCC1[NH-].[Pt+2]
endpoint: median survival time, dose: 3.12 mg/kg/injection, schedule: Q04DX003 (ip), vehicle: saline
  T/C: 100 % of control and 107 % of control
endpoint: median survival time, dose: 6.25 mg/kg/injection, schedule: Q04DX003 (ip), vehicle: saline
  T/C: 96 % of control and 109 % of control
[1]
  T/C: 108 % of control
[2]
  T/C: 116 % of control and 111 % of control
[3]
  T/C: 116 % of control and 120 % of control
endpoint: median survival time, dose: 200.0 mg/kg/injection, schedule: Q04DX003 (ip), vehicle: saline
  T/C: 153 % of control and 185 % of control

## N/C(=N/O)NO
endpoint: median survival time, dose: 50.0 mg/kg/injection, schedule: Q01DX005 (ip), vehicle: saline
  T/C: 109 % of control
endpoint: median survival time, dose: 100.0 mg/kg/injection, schedule: Q01DX005 (ip), vehicle: saline
  T/C: 110 % of control and 112 % of control
endpoint: median survival time, dose: 200.0 mg/kg/injection, schedule: Q01DX005 (ip), vehicle: saline
  T/C: 120 % of control and 123 % of control
